Laboratory results published in publication PMC6372667 (Experimental & Molecular Medicine, 2019).

Assays:
Electric eel AChE = molecular target: T1, Electric eel AChE (Electrophorus electricus, UniProt O42275); assay: In vitro cholinesterase enzyme assay (Ellman), AChE; type: biochemical
T1 construct: purchased Sigma-Aldrich Co
Description: BACE1 (human recombinant β-secretase) ([…]) and the BACE1 FRET (fluorescence resonance energy transfer) assay kit Red were purchased from ThermoFisher Scientific (P2985; Waltham, MA, USA). […] For the cell culture experiment, Dulbecco’s modified Eagle’s medium (DMEM), Opti-MEM, fetal bovine serum (FBS), and penicillin/streptomycin were obtained from Capricorn Scientific (Ebsdorfergrund, Germany). β-secretase inhibitor III (β-SI) was purchased from Calbiochem (Darmstadt, Germany). The protease inhibitor mixture (a mixture of AEBSF, pepstatin A, E-64, bestain, leupeptin, and aprotinin) was purchased from Sigma-Aldrich (St. Louis, MO, USA). Enzyme-linked immunosorbent assay (ELISA) kits for Aβ40 and Aβ42 were obtained from IBL (Kunma, Japan). All chemicals and solvents used were reagent grade, purchased from commercial sources, and used as received.
The inhibitory activities of pterosin derivatives against cholinesterases were measured using the method developed by Ellman et al.[32]. The reaction mixture contained 140 μL of sodium phosphate buffer (pH 8.0), 20 μL of test sample solution (final concentration of the compound 100 μM), and 20 μL of AChE or BChE solution, mixed and incubated for 15 min at room temperature. […] The reactions were initiated following the addition of 10 μL of DTNB and 10 μL of acetyl thiocholine iodide for the AChE assay or butyryl thiocholine chloride for the BChE assay in 96-well microplates, which were incubated for 15 min.

PAMPA-BBB, literature = type: in vitro ADME; conditions: from log BB = 0.612 × log Pe + 3.206 (ref 49)
[1] = pharmacokinetic descriptor of the brain ref 53; cited from earlier work
BACE1 = conditions: cited from earlier work
dementia animal models = conditions: 5 mg/kg i.p. ref 53; cited from earlier work

T1 sequence (O42275 24-633): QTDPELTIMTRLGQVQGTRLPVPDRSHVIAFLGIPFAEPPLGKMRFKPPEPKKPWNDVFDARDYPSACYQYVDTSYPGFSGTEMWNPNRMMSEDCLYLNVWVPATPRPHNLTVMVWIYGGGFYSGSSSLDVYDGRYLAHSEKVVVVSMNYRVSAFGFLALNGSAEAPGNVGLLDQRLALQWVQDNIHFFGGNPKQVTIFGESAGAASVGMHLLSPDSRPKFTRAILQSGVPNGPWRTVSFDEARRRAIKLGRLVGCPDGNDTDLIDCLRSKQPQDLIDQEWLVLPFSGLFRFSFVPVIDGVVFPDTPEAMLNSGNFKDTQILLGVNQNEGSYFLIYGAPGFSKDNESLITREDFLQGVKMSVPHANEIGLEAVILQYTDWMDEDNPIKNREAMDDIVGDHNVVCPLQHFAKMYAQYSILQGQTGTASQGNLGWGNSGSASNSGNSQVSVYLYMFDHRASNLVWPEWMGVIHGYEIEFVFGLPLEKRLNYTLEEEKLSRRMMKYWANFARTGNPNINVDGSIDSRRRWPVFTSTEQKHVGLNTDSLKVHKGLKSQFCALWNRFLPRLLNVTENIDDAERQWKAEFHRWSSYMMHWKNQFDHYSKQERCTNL

In the case of COc1ccc2cc3[n+](cc2c1OC)CCc1cc2c(cc1-3)OCO2 [Berberine, berberine], the IC50 (Electric eel AChE) is given as 390 ± 10 nM, the “log Pe corresponding to log BB” value (PAMPA-BBB, literature) is given as −5.8 and the “log BB” value [1] is given as −0.35. For the same molecule, the BACE1-inhibitory activity (BACE1) was “lacks” and the Cognitive effect (dementia animal models) was “procognitive and antiamnestic properties”.
